pIC50: −log10 of the molar value. Converted amounts (≈) assume the structure as drawn. Where two headings read alike, the source gives them in different places.
Experiments:
S. cerevisiae ATCC 9763 = assay: Minimal fungicidal concentration, spot assay; type: cell-based; conditions: Saccharomyces cerevisiae, ATCC9763; minimal fungicidal concentration that kills 99% of cells; read-out: MFC
Protocol: (§1) To establish the possible mode of action for Compound 1-R8, we have analysed the killing activity and determined minimal fungicidal concentrations (MFCs) (Table 4). Additionally, killing kinetics analysis against pathogenic C. albicans ATCC 10231 was performed (Figure 2).
(§2) Minimum fungicidal concentrations (MFCs) were determined as described previously by spot assay. The MFC was determined as the lowest concentration of the test compound in which no recovery of microorganisms was observed.

C. parapsilosis DSM 5784 = assay: microbe, parasite or virus in culture; type: cell-based; conditions: Lodderomyces parapsilosis, DSM5784; minimal fungicidal concentration that kills 99% of cells; read-out: MFC
Protocol: as §1, §2

C. albicans ATCC 10231 [1] = assay: microbe, parasite or virus in culture; type: cell-based; conditions: Candida albicans, ATCC10231; minimal fungicidal concentration that kills 99% of cells; read-out: MFC
Protocol: as §1, §2

C. krusei DSM 6128 = assay: microbe, parasite or virus in culture; type: cell-based; conditions: Pichia kudriavzevii, DSM6128; minimal fungicidal concentration that kills 99% of cells; read-out: MFC
Protocol: as §1, §2

C. glabrata DSM 11226 = assay: microbe, parasite or virus in culture; type: cell-based; conditions: Nakaseomyces glabratus, DSM11226; minimal fungicidal concentration that kills 99% of cells; read-out: MFC
Protocol: as §1, §2

Candida krusei ATCC 6258 [2] = assay: microbe, parasite or virus in culture; conditions: Pichia kudriavzevii, ATCC6258, 24 h, pH 7
human erythrocytes = type: cell-based; conditions: 30 min
Protocol: Red blood cell concentrates were kindly provided by the Regional Centre for Blood Donation and Blood Treatment in Gdansk. The haemolytic activity determination was carried out by the serial dilution method according to the procedure described earlier. Human erythrocytes were suspended in a solution of saline to obtain a cell density of suspension 2 × l0^7 per mL. Suitable amounts of solutions of compounds diluted in DMSO were added to the cell suspension in tubes, incubated at 37 °C for 30 min, and then centrifuged (1700× g, 5 min, 4 °C). The concentration of haemoglobin in the supernatant after centrifugation of the erythrocytes suspension was determined by measuring the absorbance at wavelength λ = 540 nm (A540 ^sample). Control experiments with the same amount of DMSO were also performed (A540 ^DMSO). The maximum level of haemolysis was obtained after incubation of the cell suspension in the presence of 0.1% Triton X-100 (positive control, A540 ^0.1%Triton X−100). […] The EH50 values for each compound were calculated with GraphPad Prism 8 software. The EH50 is the interpolated concentration of compound, for which the A540 value is exactly 50% of the A540 value measured for the positive control sample. EH (%) was calculated as follows:EH (%) = ((A540 ^sample − A540 ^DMSO)/(A540 ^0.1%Triton X−100 − A540 ^0.9%NaCl)) × 100

C. albicans ATCC 10231 [3] = type: cell-based, Candida albicans
Protocol: Killing kinetics analysis was performed as described previously. […] After an appropriate time of incubation, 10 μL was withdrawn and spread on YPG agar plates. The number of colony-forming units (CFUs) was determined after overnight incubation of the plates at 37 °C. The killing kinetics analysis was performed with the GraphPad Prism 8 software (GraphPad Software Inc., San Diego, CA, USA).

[4] = tested on: Candida albicans ATCC 10231; assay: microbe, parasite or virus in culture; conditions: ATCC10231, 24 h, pH 7
[5] = tested on: Saccharomyces cerevisiae ATCC 9763; assay: microbe, parasite or virus in culture; conditions: ATCC9763, 24 h, pH 7
[6] = tested on: Candida parapsilosis ATCC 22019; assay: microbe, parasite or virus in culture; conditions: Lodderomyces parapsilosis, ATCC22019, 24 h, pH 7
[7] = tested on: Candida glabrata ATCC 90030; assay: microbe, parasite or virus in culture; conditions: Nakaseomyces glabratus, ATCC90030, 24 h, pH 7
HeLa cells = conditions: cited from earlier work
[8] = tested on: Candida albicans ATCC 10231
Candida albicans B3 = conditions: B3, 12 h
Candida albicans F2 = conditions: F2, 12 h
HEK-293 = assay: cells; type: cell-based, human; conditions: 72 h
Protocol: (§3) The investigated compounds were screened for their in vitro antiproliferative activity towards a human embryonic kidney cell line (HEK-293) and human liver cancer cell line (HEPG2) using colorimetric MTT.
(§4) The human embryonic kidney cell line (HEK-293) and human liver cancer cell line (HEPG2) were purchased from ATCC (Manassas, Virginia, USA). HEK-293 was cultured in Dulbecco’s Modified Eagle Medium (Corning, NY, USA) and HEPG2 in Minimum Essential Medium Eagle (Corning, NY, USA). For each cell line, the culture medium was supplemented with 10% fetal bovine serum, 2 mM L-glutamine, and antibiotics: penicillin 62.6 µg mL^−1 and streptomycin 40 µg mL^−1. The cells were cultured at the humidified atmosphere of 5% CO2/95% air and routinely tested for Mycoplasma contamination.
(§5) Antiproliferative activity of the compounds was determined by (3-(4,5-dimethylthiazol-2-yl)-2,5-diphenyltetrazolium bromide (MTT, Sigma-Aldrich, St. Louis, MO, USA) assay, which involves the assessment of cell viability by the measurement of the cellular oxidoreductase activity. Briefly, cells were seeded into 96-well culture plates and were allowed to adhere overnight. The investigated compounds were dissolved in DMSO and added to wells (1% final concentration of DMSO) in various concentrations. After 72 h incubation, 20 µL of MTT solution in PBS (4 mg mL^−1) was added to each well, and plates were incubated for an additional 3h in standard culture conditions. After that, the medium was aspirated, and formazan crystals were dissolved in DMSO. The absorbance was determined at 570 nm with a microplate reader (Asys UVM 340 Microplate Reader, Biochrom, Cambridge, UK). All experiments were performed three times independently in triplicate.

HEPG2 = assay: cells; type: cell-based, human; conditions: 72 h
Protocol: as §3, §4, §5

[9] = tested on: Saccharomyces cerevisiae ATCC 9763; conditions: ATCC 9763, 24 h, pH 7
Candida albicans B4 = conditions: B4, 12 h
Candida albicans Gu4 = conditions: Gu4, 12 h
Candida krusei ATCC 6258 [10] = conditions: ATCC 6258, 24 h, pH 7
[11] = tested on: Candida parapsilosis ATCC 22019; conditions: ATCC 22019, 24 h, pH 7
Candida albicans Gu5 = conditions: Gu5, 12 h
Candida albicans F5 = conditions: F5, 12 h
[12] = tested on: Candida glabrata ATCC 90030; conditions: ATCC 90030, 24 h, pH 7

Question: With `C[C@@H]1[C@H](O)[C@@H](C)/C=C/C=C/C=C/C=C/C=C/C=C/C=C/[C@H](O[C@@H]2O[C@H](C)[C@@H](O)[C@H](N)[C@@H]2O)C[C@@H]2O[C@](O)(C[C@@H](O)C[C@@H](O)[C@H](O)CC[C@@H](O)C[C@@H](O)CC(=O)O[C@H]1C)C[C@H](O)[C@H]2C(=O)O` [Amphotericin B] as the compound, how does the MFC (S. cerevisiae ATCC 9763) read?
Answer: 2 µg/mL (≈ 2.16 µM)

Question: And the MFC (C. parapsilosis DSM 5784)?
Answer: 2 µg/mL (≈ 2.16 µM)

Question: And the MFC (C. albicans ATCC 10231 [1])?
Answer: 2 µg/mL (≈ 2.16 µM)

Question: And the MFC (C. krusei DSM 6128)?
Answer: 2 µg/mL (≈ 2.16 µM)

Question: What about the MFC (C. glabrata DSM 11226) of the same compound?
Answer: 2 µg/mL (≈ 2.16 µM)

Question: And the MIC90 (Candida krusei ATCC 6258 [2])?
Answer: 1 µg/mL (≈ 1.08 µM)

Question: What about the EH50 (human erythrocytes) of the same compound?
Answer: 3.46 ± 0.15 µg/mL

Question: What about the “mortality of the microbial population” value (C. albicans ATCC 10231 [3]) of the same compound?
Answer: about 60%

Question: And the MIC90 [4]?
Answer: 0.5 µg/mL (≈ 0.541 µM)

Question: And the MIC90 [5]?
Answer: 0.5 µg/mL (≈ 0.541 µM)

Question: And the MIC90 [6]?
Answer: 1 µg/mL (≈ 1.08 µM)

Question: What about the MIC90 [7] of the same compound?
Answer: 1 µg/mL (≈ 1.08 µM)

Question: Which cytotoxicity (HeLa cells) does the source give for `N=C(N)NCCC[C@H](NC(=O)[C@H](CCCNC(=N)N)NC(=O)[C@H](CCCNC(=N)N)NC(=O)[C@H](CCCNC(=N)N)NC(=O)[C@H](CCCNC(=N)N)NC(=O)[C@H](CCCNC(=N)N)NC(=O)[C@H](CCCNC(=N)N)NC(=O)[C@@H](N)CCCNC(=N)N)C(=O)O` [Compound R8, Octaarginine] here?
Answer: no cytotoxicity

Question: What about the MIC90 ([8]; ATCC 10231, 18 h) of the same compound?
Answer: >64 µg/mL

Question: What about the MIC90 ([8]; ATCC 10231, 24 h, pH 7) of the same compound?
Answer: >64 µg/mL

Question: What about the MIC90 (Candida albicans B3) of the same compound?
Answer: >64 µg/mL

Question: And the MIC90 (Candida albicans F2)?
Answer: >64 µg/mL

Question: And the pIC50 (HEK-293)?
Answer: < 4.30

Question: And the pIC50 (HEPG2)?
Answer: < 4.30

Question: What about the MIC90 [9] of the same compound?
Answer: 64 µg/mL (≈ 50.5 µM)

Question: And the MIC90 (Candida albicans B4)?
Answer: >64 µg/mL

Question: What about the MIC90 (Candida albicans Gu4) of the same compound?
Answer: >64 µg/mL

Question: And the MIC90 (Candida krusei ATCC 6258 [10])?
Answer: >64 µg/mL

Question: What about the MIC90 [11] of the same compound?
Answer: 64 µg/mL (≈ 50.5 µM)

Question: And the MIC90 (Candida albicans Gu5)?
Answer: >64 µg/mL

Question: And the MIC90 (Candida albicans F5)?
Answer: >64 µg/mL

Question: And the MIC90 [12]?
Answer: >64 µg/mL
